For eight compounds, IC50 results are on record in patent US8575179B2, “Dihydropyrazolopyrimidinone derivatives” (MSD K.K., priority 2008, dated 2013).

One assay addresses T1, Wee1 kinase (Homo sapiens, UniProt P30291).
T1 construct: made in house; host or cells: Sf9 insect cells (recombinant baculovirus)
As to the kind of experiment: Wee1 kinase inhibitory effect (Pharmacological Test 1). Format: biochemical. The conditions noted are these: GST-tagged Wee1 kinase, Poly(Lys, Tyr) substrate, 10 μM ATP, 30° C. for 30 minutes. The text has this:
Pharmacological Test 1 (Wee1 Kinase Inhibitory Effect)
A cDNA of Wee1 kinase with glutathione-S-transferase (GST) fused at the amino terminal thereof was inserted into a baculovirus expression vector to construct a recombinant baculovirus, with which cells of an insect cell line Sf9 were infected to overexpress the target protein. The infected cells were collected and lysed, and then the GST-tagged Wee1 kinase protein was adsorbed to a glutathione column and eluted from the column with glutathione, and the active fraction was desalted in a desalting column to give a purified enzyme.
In measurement of the Wee1 kinase activity, a synthetic peptide, Poly(Lys, Tyr) hydrobromide (Lys:Tyr (4:1)) purchased from Sigma was used as the substrate.
The amount of the reaction mixture was 21.1 μL; and the composition of the reaction buffer was 50 mM Tris-HCl buffer (pH 7.4)/10 mM magnesium chloride/1 mM dithiothreitol. The purified Wee1 kinase, 2.5 μg of the substrate peptide, 10 μM of non-labeled adenosine triphosphate (ATP) and 1 μCi of [γ-^33P]-labeled ATP (2500 Ci/mmol or more) were added to the reaction buffer, and the resulting mixture was incubated at 30° C. for 30 minutes. Thereafter, 10 μL of 350 mM phosphate buffer was added to the reaction system to stop the reaction. The substrate peptide was adsorbed on a P81 paper filter 96-well plate and the plate was washed several times with 130 mM phosphate buffer, and the radioactivity thereof was counted using a liquid scintillation counter. The [γ-^33P]-labeled ATP was purchased from Amersham Bioscience, Ltd.
The addition of a test compound to the reaction system was carried out by preparing a series of dilutions of the compound with dimethyl sulfoxide (DMSO) and adding 1.1 μL of each dilution to the reaction system. As a control, 1.1 μL of DMSO was added to the reaction system.

The subject of assay [1] is Cdc2 (Cdk1) tyrosine-15 phosphorylation in NCI-H1299 cells. As to the kind of experiment: Inhibitory effect on Cdc2 (Cdk1) tyrosine-15 phosphorylation in cells (Pharmacological Test 2, ELISA). Type of assay: cell-based. To be noted: Homo sapiens; NCI-H1299 cells pretreated with 200 nM camptothecin for 16 hours, test compound with nocodazole for 8 hours; ratio of tyrosine-15-phosphorylated Cdc2 to Cdc2. The source says:
Pharmacological Test 2 (Method for Determining Drug Effect Using Cells (Inhibitory Effect on Cdc2 (Cdk1) Tyrosine-15 Phosphorylation))
Fetal bovine serum (FBS) was purchased from Morgate, Inc.; an RPMI-1640 medium and a DMEM medium were purchased from Invitrogen, Inc.; camptothecin was purchased from Sigma Co.; gemcitabine was purchased from Eli Lilly Japan K.K.; nocodazole and protease inhibitor cocktail were purchased from Sigma Co.; a rabbit anti-Cdc2 antibody and a mouse anti-Cdc2 antibody were purchased from Santa Cruz Biotechnology, Inc.; a rabbit anti-tyrosine-15-phosphorylated Cdc2 antibody and a horseradish peroxidase-labeled anti-mouse IgG antibody were purchased from Cell Signaling Technology, Inc.; and Sure Blue Reserve TMB peroxidase substrate was purchased from Kirkegaard & Perry Laboratories, Inc.
A human non-small cell lung cancer cell line (NCI-H1299) and a human colon cancer cell line (WiDr) can be obtained from American Type Culture Collection (ATCC).
In the method using NCI-H1299 cells, the cells were suspended in an RPMI-1640 medium supplemented with 10% FBS, and 100 μl, of the resulting cell suspension was dispensed in a Nunclon Delta treated 96-well plastic plate purchased from Nunc, Inc. at a density of 2000 cells per well, and the plate was incubated overnight at 37° C. under an atmosphere of 5% CO2 and 95% air. Camptothecin was dissolved in dimethyl sulfoxide (DMSO) and further the resulting solution was diluted with an RPMI-1640 medium supplemented with 10% FBS. Then, 50 μL of the diluted solution was added to each well of the plate in which the cells were seeded in advance such that the final concentration of camptothecin was 200 nM, and the plate was incubated at 37° C. under an atmosphere of 5% CO2 and 95% air for 16 hours. A test compound was serially diluted with DMSO, and further diluted with an RPMI-1640 medium supplemented with 10% FBS containing 4000 nM nocodazole. Then, 50 μL of the test compound solution was added to each well of the plate in which the cells treated with camptothecin were seeded, and the plate was incubated at 37° C. under an atmosphere of 5% CO2 and 95% air for 8 hours. Then, the culture medium was removed from each well and 100 μL of a cell lysis buffer was added to each well, and the plate was shaken at 4° C. for 2 hours, and thereafter the liquid in the plate was frozen at −80° C. and then thawed, which was used as a lysed cell solution. Cdc2 and tyrosine-15-phosphorylated Cdc2 in this lysed cell solution were measured by an enzyme-linked immunosorbent assay (ELISA method), and a ratio of tyrosine-15-phosphorylated Cdc2 to Cdc2 was calculated to determine a 50% effective concentration (EC50, nM) of the test compound for inhibition of phosphorylation in cells. […]
A general note: ELISA stands for enzyme-linked immunosorbent assay.

T1 sequence (P30291 whole entry): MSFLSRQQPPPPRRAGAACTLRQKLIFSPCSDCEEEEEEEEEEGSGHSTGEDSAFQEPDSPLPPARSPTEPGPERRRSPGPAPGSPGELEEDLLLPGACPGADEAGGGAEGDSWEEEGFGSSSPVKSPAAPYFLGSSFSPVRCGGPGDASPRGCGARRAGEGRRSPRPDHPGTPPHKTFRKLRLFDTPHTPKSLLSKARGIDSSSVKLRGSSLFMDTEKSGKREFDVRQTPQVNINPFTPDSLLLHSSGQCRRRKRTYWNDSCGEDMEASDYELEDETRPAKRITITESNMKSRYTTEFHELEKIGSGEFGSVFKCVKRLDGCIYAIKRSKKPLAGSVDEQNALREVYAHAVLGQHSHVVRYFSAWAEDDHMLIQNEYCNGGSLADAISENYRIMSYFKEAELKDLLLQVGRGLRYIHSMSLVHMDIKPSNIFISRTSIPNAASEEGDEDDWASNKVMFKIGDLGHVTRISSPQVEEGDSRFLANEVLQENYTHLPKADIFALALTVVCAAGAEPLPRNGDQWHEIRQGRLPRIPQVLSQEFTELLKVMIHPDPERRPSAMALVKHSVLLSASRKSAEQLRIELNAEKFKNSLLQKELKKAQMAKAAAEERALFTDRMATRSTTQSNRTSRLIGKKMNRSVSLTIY

`CC(=O)N1CCN(c2ccc(Nc3ncc4c(=O)n(-c5c(Cl)cccc5Cl)c(=O)[nH]c4n3)cc2C)CC1` [Example 9, 7-{[4-(4-acetylpiperazin-1-yl)-3-methylphenyl]amino}-3-(2,6-dichlorophenyl)pyrimido[4,5-d]pyrimidine-2,4(1H,3H)-dione]: the IC50 (in general, the concentration needed to halve the response being measured) at Wee1 kinase was determined as 4 nM. With `Cc1cc(Nc2ncc3c(=O)n(-c4c(C)cccc4Cl)c(=O)[nH]c3n2)ccc1N1CCN(C)CC1` [Example 2, 3-(2-chloro-6-methylphenyl)-7-{[3-methyl-4-(4-methylpiperazin-1-yl)phenyl]amino}pyrimido[4,5-d]pyrimidine-2,4(1H,3H)-dione], the results for the half-inhibitory concentration (IC50) (at Wee1 kinase; in assay [1]) were 9 nM and 79 nM, respectively. Consider `O=C(CO)N1CCN(c2ccc(Nc3ncc4c(=O)n(-c5c(Cl)cccc5Cl)c(=O)[nH]c4n3)cc2)CC1` [Example 32, 3-(2,6-dichlorophenyl)-7-({4-[4-(hydroxyacetyl)piperazin-1-yl]phenyl}amino)pyrimido[4,5-d]pyrimidine-2,4(1H,3H)-dione], for which the IC50 at Wee1 kinase was found to be 6 nM. In the case of `CN1CCCN(c2ccc(Nc3ncc4c(=O)n(-c5c(Cl)cccc5Cl)c(=O)[nH]c4n3)cc2)CC1` [Example 31, 3-(2,6-dichlorophenyl)-7-{[4-(4-methyl-1,4-diazepan-1-yl)phenyl]amino}pyrimido[4,5-d]pyrimidine-2,4(1H,3H)-dione], the IC50 against Wee1 kinase was 4 nM. For `COC(C)(C)C(=O)N1CCN(c2ccc(Nc3ncc4c(=O)n(-c5c(Cl)cccc5Cl)c(=O)[nH]c4n3)cc2)CC1` [Example 33, 3-(2,6-dichlorophenyl)-7-({4-[4-(2-methoxy-2-methylpropionyl)piperazin-1-yl]phenyl}amino)pyrimido[4,5-d]pyrimidine-2,4(1H,3H)-dione], inhibition at Wee1 kinase was half-maximal at 9 nM (IC50).

`Cc1cc(Nc2ncc3c(=O)n(-c4c(Cl)cccc4Cl)c(=O)n(C)c3n2)ccc1N1CCN(C)CC1` [Example 3, 3-(2,6-dichlorophenyl)-1-methyl-7-{[3-methyl-4-(4-methylpiperazin-1-yl)phenyl]amino}pyrimido[4,5-d]pyrimidine-2,4(1H,3H)-dione]: the IC50 against Wee1 kinase is 8 nM; in assay [1] it was 45 nM. On the same counts, the results for `CN1CCN(c2ccc(Nc3ncc4c(=O)n(-c5c(Cl)cccc5Cl)c(=O)n(C)c4n3)cc2)CC1` [Example 4, 3-(2,6-dichlorophenyl)-1-methyl-7-{[4-(4-methylpiperazin-1-yl)phenyl]amino}pyrimido[4,5-d]pyrimidine-2,4(1H,3H)-dione] are 33 nM and 33 nM. Consider `Cc1cc(Nc2ncc3c(=O)n(-c4c(Cl)cccc4Cl)c(=O)[nH]c3n2)ccc1N1CCN(C)CC1` [Example 1, 3-(2,6-dichlorophenyl)-7-{[3-methyl-4-(4-methylpiperazin-1-yl)phenyl]amino}pyrimido[4,5-d]pyrimidine-2,4(1H,3H)-dione], for which the IC50 is 7 nM at Wee1 kinase and 87 nM in assay [1].
